In one data set the test system is intraocular pressure. The experiment in a line: Intraocular pressure changes in vivo after application into the conjunctiva sac (Tono-Pen XL). Set-up: species or system rabbit (Chinchilla). Particulars: for Measured intraocular pressure values, RE, 0.5 h / Measured intraocular pressure values, RE, 0.5 h, Average / Measured intraocular pressure values, RE, 1 h, Average / Measured intraocular pressure values, RE, 1 h / Measured intraocular pressure values, RE, 4 h, Average / Measured intraocular pressure values, RE, 4 h / Measured intraocular pressure values, RE, 7 h, Average / Measured intraocular pressure values, RE, 7 h / Measured intraocular pressure values, RE, 25 h, Average / Measured intraocular pressure values, RE, 25 h / Measured intraocular pressure values, RE, 31 h, Average / Measured intraocular pressure values, RE, 31 h: treated right eye. On the procedure: The basic pharmacologic profile of the compounds of the general formula (I), which was focused on the determination of the intraocular pressure changes, was evaluated in in vivo conditions. In addition to the main potential therapeutic effect, related side responses were also monitored. In the experiments the laboratory animals of chinchilla species were used, because the normotension eye of this animal species provides the best reactivity. Adult male Chinchilla (in the age of one to one and half year), of 2000-3500 g, examined by veterinarian, without disease symptoms, grown under the standard conditions was used as the animal model. The solutions of tested compounds of the general formula (I) were always freshly prepared. The distilled water was used as a control. Measurement apparatus Tono-Pen®XL from Medtronic XOMED was used for measurement of the intraocular pressure. The intraocular pressure values were expressed in mmHg. At the first day of the experiment the solutions of the tested compounds of the general formula (I) were applied twice a day, specifically at 8.00 a.m. and 2.00 p.m. At the second day of the experiment the application was still in the 30th hour (i.e. at the second day at 2.00 p.m.). The solution of each compound was always applied in an amount of 2 drops into the right conjunctiva sac. The left eye served as a control. Into the conjunctiva sac of this eye (left), the same number of drop (2 drops) of distilled water was applied. The distilled water served as placebo. […] Standard requirements were kept in all measurements. The measurements started in the morning at 7.00 a.m. The measurement was accomplished with Tono-Pen® XL apparatus by soft perpendicular touch of the probe to the cornea of the rabbit five times successively. The measurement was accomplished on the both cornea (right and left eyes) before administration of the sample. Thus the normal values of the intraocular pressure for both the right and left eyes were obtained. Then at 8.00 a.m. 2 drops of tested compound were applied in the right eye and 2 drops of the distilled water were applied in the left eye. Further measurements were carried out after half an hour (at 8.30 a.m.), after one hour (at 9.00 a.m.), after four hours (at 12.00), after seven hours (at 3.00 p.m.), after 25 hours (on the second day at 9.00 a.m.) and after 31 hours from the application in the right eye (on the second day at 3.00 p.m). […] Moreover, 2 drops of the tested compound in the right eye and 2 drops of distilled water in the left eye were applied again in the same group of the rabbits in the first day at 2.00 p.m. (i.e. 6 hours after application of the first dose of the compound) and in the second day of the experiment at 2.00 p.m. (i.e. in the 30th hour of the experiment). Thus the changes caused by the repeated administration of the compound can be monitored. For each compound and each concentration 10 independent assays were carried out.

The structures appear in SMILES notation. Values joined by “and” are separate entries in the source; they are usually repeats but may differ in a detail not shown here. Identical values can stand only once. Counter-ions that a name gives are not always drawn.

With `NS(=O)(=O)c1ccc(C(=O)NCCCN2CCOCC2)cc1` [II-6, 4-Sulfamoyl-N-(morpholinopropyl)benzamide], in the data set with intraocular pressure (II-6 1% solution, 2 drops, treated right eye (PO), 0.5 h, individual animals n 1-10, N PO average 15.8), the “Measured intraocular pressure values, PO, 0.5 h” value is 8 mmHg and 11 mmHg (2×) and 10 mmHg (3×) and 9 mmHg (2×) and 14 mmHg (2×). In the data set on intraocular pressure (II-6 1%, treated right eye (PO), 0.5 h, average of 10, N PO average 15.8), the “Measured intraocular pressure values, PO, 0.5 h, Average” value is recorded as 10.6 mmHg. Besides, the “Measured intraocular pressure values, PO, 1 h, Average” value in the data set with intraocular pressure (II-6 1%, treated right eye (PO), 1 h, average of 10, N PO average 15.8) is recorded as 10.4 mmHg. Moreover, in the data set with intraocular pressure (II-6 1%, treated right eye (PO), 1 h, individual animals, N PO average 15.8), the “Measured intraocular pressure values, PO, 1 h” value is 7 mmHg and 10 mmHg (3×) and 14 mmHg and 9 mmHg and 8 mmHg and 12 mmHg (3×). For the same compound, the “Measured intraocular pressure values, PO, 4 h, Average” value with intraocular pressure (II-6 1%, treated right eye (PO), 4 h, average of 10, N PO average 15.8) is 9.6 mmHg. In addition, the “Measured intraocular pressure values, PO, 4 h” value with intraocular pressure (II-6 1%, treated right eye (PO), 4 h, individual animals, N PO average 15.8) was 12 mmHg and 10 mmHg and 9 mmHg and 11 mmHg (2×) and 8 mmHg (3×) and 6 mmHg and 13 mmHg. For the same compound, the “Measured intraocular pressure values, PO, 7 h, Average” value with intraocular pressure (II-6 1%, treated right eye (PO), 7 h (second dose at 6 h), average of 10, N PO average 15.8) is reported as 9.1 mmHg. Further, the “Measured intraocular pressure values, PO, 7 h” value in the data set with intraocular pressure (II-6 1%, treated right eye (PO), 7 h (second dose at 6 h), individual animals, N PO average 15.8) is 8 mmHg (2×) and 9 mmHg (3×) and 11 mmHg and 6 mmHg (2×) and 13 mmHg and 12 mmHg. Further, the “Measured intraocular pressure values, PO, 25 h, Average” value in the data set on intraocular pressure (II-6 1%, treated right eye (PO), 25 h, average of 10, N PO average 15.8) is 13.7 mmHg. Besides, the “Measured intraocular pressure values, PO, 25 h” value with intraocular pressure (II-6 1%, treated right eye (PO), 25 h, individual animals, N PO average 15.8) was 13 mmHg (3×) and 16 mmHg (2×) and 18 mmHg and 12 mmHg (4×). Further, the “Measured intraocular pressure values, PO, 31 h, Average” value in the data set with intraocular pressure (II-6 1%, treated right eye (PO), 31 h (dose at 30 h), average of 10, N PO average 15.8) is 11.1 mmHg. For the same compound, the “Measured intraocular pressure values, PO, 31 h” value in the data set with intraocular pressure (II-6 1%, treated right eye (PO), 31 h (dose at 30 h), individual animals, N PO average 15.8) was 10 mmHg (3×) and 12 mmHg (2×) and 9 mmHg (2×) and 11 mmHg and 14 mmHg (2×).
For the compound `NS(=O)(=O)c1ccc(S(=O)(=O)NCCCN2CCOCC2)cc1` [Compound I-6, N-(Morpholinopropyl)benzene-1,4-bis(sulphonamide)], the “Measured intraocular pressure values, RE, 0.5 h” value with intraocular pressure (I-6 2% solution, 2 drops, 0.5 h after application, individual animals n 1-10, RE average before application (N) 12.9) is 7 mmHg (2×) and 8 mmHg and 9 mmHg (4×) and 11 mmHg and 12 mmHg and 15 mmHg; with intraocular pressure (I-6 2.5% solution, 2 drops, 0.5 h, individual animals n 1-10, N RE average 15.3), 11 mmHg (2×) and 10 mmHg (3×) and 12 mmHg (2×) and 9 mmHg (2×) and 16 mmHg. Also, the “Measured intraocular pressure values, RE, 0.5 h, Average” value in the data set on intraocular pressure (I-6 2%, 0.5 h, average of 10, N RE average 12.9) was 9.6 mmHg; in the data set on intraocular pressure (I-6 2.5%, 0.5 h, average of 10, N RE average 15.3), 11 mmHg. Moreover, the “Measured intraocular pressure values, RE, 1 h, Average” value in the data set on intraocular pressure (I-6 2%, 1 h, average of 10, N RE average 12.9) is listed as 10.3 mmHg; in the data set with intraocular pressure (I-6 2.5%, 1 h, average of 10, N RE average 15.3), 10.5 mmHg. Also, the “Measured intraocular pressure values, RE, 1 h” value with intraocular pressure (I-6 2%, 1 h, individual animals, N RE average 12.9) was 9 mmHg (3×) and 8 mmHg (2×) and 14 mmHg and 11 mmHg and 10 mmHg and 13 mmHg and 12 mmHg; in the data set on intraocular pressure (I-6 2.5%, 1 h, individual animals, N RE average 15.3), 10 mmHg (2×) and 9 mmHg (5×) and 13 mmHg and 16 mmHg and 11 mmHg. Further, the “Measured intraocular pressure values, RE, 4 h, Average” value with intraocular pressure (I-6 2%, 4 h, average of 10, N RE average 12.9) is reported as 8.4 mmHg; in the data set on intraocular pressure (I-6 2.5%, 4 h, average of 10, N RE average 15.3), 10.1 mmHg. The “Measured intraocular pressure values, RE, 4 h” value was 6 mmHg and 8 mmHg (3×) and 9 mmHg and 12 mmHg (2×) and 7 mmHg (3×) in the data set with intraocular pressure (I-6 2%, 4 h, individual animals, N RE average 12.9); 8 mmHg and 9 mmHg (3×) and 11 mmHg (3×) and 10 mmHg (2×) and 13 mmHg in the data set with intraocular pressure (I-6 2.5%, 4 h, individual animals, N RE average 15.3). For the same compound, the “Measured intraocular pressure values, RE, 7 h, Average” value turned out to be 7.3 mmHg in the data set with intraocular pressure (I-6 2%, 7 h (second dose at 6 h), average of 10, N RE average 12.9) and 9.6 mmHg in the data set on intraocular pressure (I-6 2.5%, 7 h (second dose at 6 h), average of 10, N RE average 15.3). For the same compound, the “Measured intraocular pressure values, RE, 7 h” value in the data set with intraocular pressure (I-6 2%, 7 h (second dose at 6 h), individual animals, N RE average 12.9) is 8 mmHg (3×) and 10 mmHg (2×) and 5 mmHg (2×) and 6 mmHg (2×) and 7 mmHg; with intraocular pressure (I-6 2.5%, 7 h (second dose at 6 h), individual animals, N RE average 15.3), 9 mmHg (4×) and 8 mmHg (2×) and 10 mmHg and 11 mmHg and 16 mmHg and 7 mmHg. Besides, the “Measured intraocular pressure values, RE, 25 h, Average” value with intraocular pressure (I-6 2%, 25 h, average of 10, N RE average 12.9) came out at 10.7 mmHg; in the data set on intraocular pressure (I-6 2.5%, 25 h, average of 10, N RE average 15.3) it was 13 mmHg. The “Measured intraocular pressure values, RE, 25 h” value with intraocular pressure (I-6 2%, 25 h, individual animals, N RE average 12.9) was 9 mmHg (4×) and 12 mmHg (4×) and 15 mmHg and 8 mmHg; in the data set on intraocular pressure (I-6 2.5%, 25 h, individual animals, N RE average 15.3), 12 mmHg (3×) and 13 mmHg (3×) and 15 mmHg (2×) and 14 mmHg and 11 mmHg. In addition, the “Measured intraocular pressure values, RE, 31 h, Average” value in the data set on intraocular pressure (I-6 2%, 31 h (dose at 30 h), average of 10, N RE average 12.9) is given as 10.4 mmHg; in the data set with intraocular pressure (I-6 2.5%, 31 h (dose at 30 h), average of 10, N RE average 15.3), 11.2 mmHg. Further, the “Measured intraocular pressure values, RE, 31 h” value is 10 mmHg (2×) and 9 mmHg (3×) and 11 mmHg (2×) and 13 mmHg and 8 mmHg and 14 mmHg in the data set on intraocular pressure (I-6 2%, 31 h (dose at 30 h), individual animals, N RE average 12.9); 9 mmHg (4×) and 10 mmHg (2×) and 16 mmHg and 13 mmHg and 15 mmHg and 12 mmHg in the data set on intraocular pressure (I-6 2.5%, 31 h (dose at 30 h), individual animals, N RE average 15.3).
Broadly, the melting point is the temperature of the solid-liquid transition. For `CCN(CC)CCCNC(=O)c1ccc(S(N)(=O)=O)cc1` (as salt: ammonium) [II-4, 4-Sulfamoyl-N—(N,N-diethylaminopropyl)benzamide], the melting point lay in the range of 122 to 123 °C.
